Test: Relaxibity (r1, r2) measurement by MRI at 1.5 T and 9.4 T
Type: physicochemical
Excerpt: In accordance with the present disclosure, the relaxibity (unit mM^−1 s^−1) is obtained using an inversion recovery according to the inversion time (T1). More specifically, signal intensities at varying inversion times T1 are acquired. Then, the signal intensities are subjected to a minimum non-linear fitting (NLF) to obtain the relaxation time (s). Then, the relaxibity (unit mM^−1 s^−1) is obtained using the relaxation time (s) and the concentration (mM) of the contrast agent. The gadolinium complex represented by the Chemical Formula 1 has the relaxibity defined as above which is at least 4 mM^−1 s^−1 not only in the normal magnetic field range of 1.5 T but also in the high magnetic field of 7 T or greater.
The relaxibity for the gadolinium complex GdL^b as obtained above was measured at magnetic field strengths of 1.5 T and 9.4 T respectively as follows.
T1 relaxation time was checked using inversion recovery according to various T1 (inversion times). […] The T2 relaxation time is determined as follows. […] For TEs, mean values of pixels for various spin-echo measurements were calculated using a nonlinear fitting method. Then, the T2 relaxation time was calculated using the spin-echo measurements. The relaxibity (mM^−1s^−1) was calculated as an inverse of a relaxation time (s) for the contrast agent 1 mM. We calculated r1 using the T1 relaxation time and r2 using the T2 relaxation time. […]

Relaxibity r1 (magnetic field 1.5 T): 4.06 mM⁻¹ s⁻¹
Relaxibity r1 (magnetic field 9.4 T): 2.96 mM⁻¹ s⁻¹
Structure (SMILES): O=C([O-])CN1CCN(CC(=O)[O-])CCN([C@H](CO)[C@H](O)CO)CCN(CC(=O)[O-])CC1.[Gd+3] (racemic) [Gadovist ®, gadobutrol]

— patent US10759817B2, “Gadolinium complex, method for synthesis of the gadolinium complex, and MRI contrast agent including the gadolinium complex” (Kyungpook National University Industry-Academic Cooperation …, priority 2018, dated 2020)
